Six compounds from article PMC4468940, “Glucose-tolerant β-glucosidase retrieved from a Kusaya gravy metagenome” (Frontiers in Microbiology, 2015) can be followed below.

In assay [1] the test system is T1, Ks5A7.
T1 construct: full length, 452 aa, 52,509 Da (53,573 Da tagged), C-terminal 6xHis tag (pET29b, primer-encoded LE linker) kept; E. coli Rosetta (DE3); ~160 kDa by gel filtration; GH1; N-terminus from primer MMKFNENFVWG, C-terminus IEENGENL; silent NdeI site removal
The experiment in a line: released glucose, Amplex Red glucose oxidase assay. It counts as biochemical, metagenome (uncultured bacterium, Kusaya gravy). The following applies: McIlvaine buffer pH 5.5, 45°C. The text has this: released glucose, Amplex Red glucose oxidase assay on Ks5A7

The test system of assay [2] is T1, Ks5A7. The experiment in a line: p-nitrophenol release, […] nm, initial rates. It counts as biochemical, metagenome (uncultured bacterium, Kusaya gravy). The settings on record: McIlvaine buffer pH 5.5, 45°C, no glucose added.

With `OC[C@H]1O[C@@H](O[C@H]2[C@H](O)[C@@H](O)[C@H](O[C@H]3[C@H](O)[C@@H](O)[C@H](O[C@H]4[C@H](O)[C@@H](O)C(O)O[C@@H]4CO)O[C@@H]3CO)O[C@@H]2CO)[C@H](O)[C@@H](O)[C@@H]1O` (stereo partly drawn) [Cellotetraose], the Km in the assay on Ks5A7 [1] is 160 ± 12 µM.
For the compound `O=[N+]([O-])c1ccc(O[C@@H]2O[C@H](CO)[C@@H](O)[C@H](O)[C@H]2O)cc1` [pNPGlc], the Km in the assay on Ks5A7 [2] stood at 78 ± 2 µM.
Turning to `OC[C@H]1O[C@@H](O[C@H]2[C@H](O)[C@@H](O)C(O)O[C@@H]2CO)[C@H](O)[C@@H](O)[C@@H]1O` (stereo partly drawn) [Cellobiose], the Km with Ks5A7 [1] was found to be 358 ± 55 µM.
`C[C@H]1O[C@@H](Oc2ccc([N+](=O)[O-])cc2)[C@H](O)[C@@H](O)[C@H]1O` [pNPFuc]: the Km in the assay with Ks5A7 [2] is 152 ± 4 µM.
On to `OC[C@H]1O[C@@H](O[C@H]2[C@H](O)[C@@H](O)[C@H](O[C@H]3[C@H](O)[C@@H](O)C(O)O[C@@H]3CO)O[C@@H]2CO)[C@H](O)[C@@H](O)[C@@H]1O` (stereo partly drawn) [Cellotriose], for which, in the assay on Ks5A7 [1], the Km is 163 ± 16 µM.
Still for that read-out and setting: then `OC[C@H]1O[C@@H](O[C@H]2[C@H](O)[C@@H](O)[C@H](O[C@H]3[C@H](O)[C@@H](O)[C@H](O[C@H]4[C@H](O)[C@@H](O)[C@H](O[C@H]5[C@H](O)[C@@H](O)C(O)O[C@@H]5CO)O[C@@H]4CO)O[C@@H]3CO)O[C@@H]2CO)[C@H](O)[C@@H](O)[C@@H]1O` (stereo partly drawn) [Cellopentaose], with 132 ± 11 µM.

Broadly, the Km is the substrate concentration at which the rate is half of its maximum.
